The text below walks through data of ChEMBL document CHEMBL5325466, “Recent research advances in ATX inhibitors: An overview of primary literature” (Bioorg Med Chem, 2023).

The target of test [1] is T1, Autotaxin (Homo sapiens, UniProt Q13822). The test can be described thus: Inhibition of human ATX using LPC as substrate measured after 2 hrs by fluorescence based choline release assay.
Test [2] concerns the target T1, Autotaxin. The test can be described thus: Inhibition of recombinant human ATX expressed in Sf9 cells using FS-3 as substrate measured after 1 hrs by fluorescence based assay.
In test [3] the target is T1, Autotaxin. Kind of test: Inhibition of human ATX using FS-3 as substrate measured after 1 hrs by fluorescence based […] assay.
In test [4] the target is T1, Autotaxin. The test can be described thus: Inhibition of ATX (unknown origin) using […] as substrate.
The target of test [5] is T1, Autotaxin. The test can be described thus: Inhibition of ATX in human blood. In kind it is tissue-based.
Test [6] concerns the target Autotaxin (Mus musculus, UniProt Q9R1E6). The test can be described thus: Inhibition of ATX in mouse plasma. In kind it is cell-free.
The target of test [7] is T1, Autotaxin. The test can be described thus: Inhibition of human ATX using LPC as substrate assessed as choline release measured after 1.5 hrs by fluorescence based assay.
The target in test [8] is T1, Autotaxin. The test can be described thus: Inhibition of human ATX using LPC as substrate preincubated for 30 mins followed by substrate addition measured after 90 mins by choline release assay.
Test [9] is described as follows: Inhibition of hen egg white ATX using LPC as substrate preincubated for 30 mins followed by substrate addition measured after 90 mins by choline release assay. Further details: species or system Gallus gallus.
The target in test [10] is T1, Autotaxin. The test can be described thus: Inhibition of ATX (unknown origin) using FS-3 as substrate.

SMILES strings stand for the structures.

The IC50 is the concentration that inhibits the measured activity by half. On to `O=C(Nc1cccc(F)c1)c1cc(S(=O)(=O)N2CCOCC2)c(Cl)cc1Cl`, for which half-maximal inhibition at Autotaxin [1] (IC50) was put at 0.0436 µM.

`CS(=O)(=O)N(c1cc(C(=O)Nc2cc(F)c(Cl)c(F)c2)c(Cl)cc1Cl)C1CCOCC1`: the IC50 on Autotaxin [2] is 0.218 µM.

Consider `O=C(Nc1ccc(Br)cc1)c1cc(S(=O)(=O)N2CCCCC2)c(Cl)cc1Cl`, for which the half-maximal inhibitory concentration (IC50) against Autotaxin [1] was found to be 0.023 µM; against Autotaxin [3] it was 0.021 µM.

Consider `CCCn1cc(-n2c(C)c(Sc3cccc(C(=O)O)c3F)c3ccc(Cl)c(F)c32)cn1`, for which the IC50 against Autotaxin [4] stood at 0.0011 µM; on Autotaxin [5] it was 0.0089 µM; against Autotaxin [6], 0.022 µM.

For the compound `Cc1c(Sc2cccc(C(=O)O)c2F)c2ccc(Cl)c(F)c2n1C(=O)N1CC2(CC2)c2ccccc21`, on Autotaxin [7], the IC50 was 0.002 µM.

Consider `N#CC1=C(N)Oc2n[nH]c(-c3ccc(OCc4ccc(F)cc4)cc3)c2[C@H]1c1ccc(Cl)c(Cl)c1`, for which the IC50 against Autotaxin [8] worked out at 0.134 µM; in test [9], 0.087 µM.

In the case of `CS(=O)(=O)N(c1cc(C(=O)Nc2cc(F)c(F)c(F)c2)c(Cl)cc1Cl)C1CCOCC1`, at Autotaxin [2], the IC50 amounted to 0.219 µM.

Turning to `CCc1nc2c(C)cc(-c3ccc(C(=O)N4CCN(CCO)CC4)cc3)cn2c1NC(=O)OCc1ccc2c(c1)OCO2`, half-maximal inhibition at Autotaxin [10] (IC50) was put at 0.0027 µM.
